Data: patent publication US20260062422A1 (Halda Therapeutics OpCo, Inc., priority 2022, published 2026)
pKd: −log10 of the molar value.

Biological target: T1, BRD4-BD2 (Homo sapiens, UniProt O60885)
T1 construct: made in house; host or cells: T7 phage grown in an E. coli host derived from BL21
Test: bromoKdELECT assay for binding affinity to BRD4-BD2
Settings: Table 7
Protocol: Compounds were tested using a bromoKdELECT assay. T7 phage strains displaying bromodomains were grown in parallel in 24-well blocks in an E. coli host derived from the BL21 strain. E. coli were grown to log-phase and infected with T7 phage from a frozen stock (multiplicity of infection=0.4) and incubated with shaking at 32° C. until lysis (90-150 minutes). The lysates were centrifuged (5,000×g) and filtered (0.2 μm) to remove cell debris. Streptavidin-coated magnetic beads were treated with biotinylated small molecule or acetylated peptide ligands for 30 minutes at room temperature to generate affinity resins for bromodomain assays. The liganded beads were blocked with excess biotin and washed with blocking buffer (SeaBlock (Pierce), 1% BSA, 0.05% Tween 20, 1 mM DTT) to remove unbound ligand and to reduce nonspecific phage binding. Binding reactions were assembled by combining bromodomains, liganded affinity beads, and test compounds in 1× binding buffer (17% SeaBlock, 0.33×PBS, 0.04% Tween 20, 0.02% BSA, 0.004% Sodium azide, 7.4 mM DTT). Test compounds were prepared as 1000× stocks in 100% DMSO. Kds were determined using an 11-point 3-fold compound dilution series with one DMSO control point. All compounds for Kd measurements are distributed by acoustic transfer (non-contact dispensing) in 100% DMSO. The compounds were then diluted directly into the assays such that the final concentration of DMSO was 0.09%. All reactions performed in polypropylene 384-well plates. Each was a final volume of 0.02 ml. The assay plates were incubated at room temperature with shaking for 1 hour and the affinity beads were washed with wash buffer (1×PBS, 0.05% Tween 20). The beads were then resuspended in elution buffer (1×PBS, 0.05% Tween 20, 2 μM non-biotinylated affinity ligand) and incubated at room temperature with shaking for 30 minutes. The bromodomain concentration in the eluates was measured by qPCR.

| SMILES | pKd |
| --- | --- |
| Cc1sc2c(c1C)C(c1ccc(Cl)cc1)=N[C@@H](CC(=O)NCCOCCOCCOC1CCN(c3ncc(C(=O)N[C@H]4C(C)(C)[C@H](Oc5ccc(C#N)c(Cl)c5)C4(C)C)cn3)CC1)c1nnc(C)n1-2 [Compound I-7] | > 7.30 |
| CCN(C)C(=O)C[C@@H]1N=C(c2ccc(OCCOC3CCN(c4ncc(C(=O)N[C@H]5C(C)(C)[C@H](Oc6ccc(C#N)c(Cl)c6)C5(C)C)cn4)CC3)cc2)c2c(sc(C)c2C)-n2c(C)nnc21 [Compound I-66] | 5.60 to 6.30 |
| CCNC(=O)C[C@@H]1N=C(c2ccc(OCCOC3CCN(c4ncc(C(=O)N[C@H]5C(C)(C)[C@H](Oc6ccc(C#N)c(Cl)c6)C5(C)C)cn4)CC3)c(F)c2F)c2c(sc(C)c2C)-n2c(C)nnc21 [Compound I-73] | 6.30 to 7.30 |
| CCNC(=O)C[C@@H]1N=C(c2ccc(OCCOC3CCN(c4ncc(C(=O)N[C@H]5C(C)(C)[C@H](Oc6ccc(C#N)c(Cl)c6)C5(C)C)cn4)CC3)cc2F)c2c(sc(C)c2C)-n2c(C)nnc21 [Compound I-75] | 6.30 to 7.30 |
| CCNC(=O)C[C@@H]1N=C(c2ccc(OCCOC3CCN(c4ncc(C(=O)N[C@H]5C(C)(C)[C@H](Oc6ccc(C#N)c(Cl)c6)C5(C)C)cn4)CC3)c(F)c2)c2c(sc(C)c2C)-n2c(C)nnc21 [Compound I-76] | 6.30 to 7.30 |
| Cc1sc2c(c1C)C(c1ccc(CCCOC3CCN(c4ncc(C(=O)N[C@H]5C(C)(C)[C@H](Oc6ccc(C#N)c(Cl)c6)C5(C)C)cn4)CC3)cc1)=N[C@@H](CC(=O)NC(C)C)c1nnc(C)n1-2 [Compound I-100] | 5.60 to 6.30 |
| CCN(C)C(=O)C[C@@H]1N=C(c2ccc(CCCOC3CCN(c4ncc(C(=O)N[C@H]5C(C)(C)[C@H](Oc6ccc(C#N)c(Cl)c6)C5(C)C)cn4)CC3)cc2)c2c(sc(C)c2C)-n2c(C)nnc21 [Compound I-101] | < 5.60 |
| Cc1sc2c(c1C)C(c1ccc(CCCOC3CCN(c4ncc(C(=O)N[C@H]5C(C)(C)[C@H](Oc6ccc(C#N)c(Cl)c6)C5(C)C)cn4)CC3)cc1)=N[C@@H](CC(=O)NC1CC1)c1nnc(C)n1-2 [Compound I-102] | 6.30 to 7.30 |
| CCNC(=O)C[C@@H]1N=C(c2ccc(N(C)CC3CN(c4ncc(C(=O)N[C@H]5C(C)(C)[C@H](Oc6ccc(C#N)c(Cl)c6)C5(C)C)cn4)C3)cc2)c2c(sc(C)c2C)-n2c(C)nnc21 [Compound I-107] | 6.30 to 7.30 |
| Cc1sc2c(c1C)C(c1ccc(CCCOC3CCN(c4ncc(C(=O)N[C@H]5C(C)(C)[C@H](Oc6ccc(C#N)c(Cl)c6)C5(C)C)cn4)CC3)cc1)=N[C@@H](Cc1ncco1)c1nnc(C)n1-2 [Compound I-131, N-[3-(3-chloro-4-cyano-phenoxy)-2,2,4,4-tetramethyl-cyclobutyl]-2-[4-[3-[4-[(9S)-4,5,13-trimethyl-9-(oxazol-2-ylmethyl)-3-thia-1,8,11,12-tetrazatricyclo[8.3.0.02,6]trideca-2(6),4,7,10,12-pentaen-7-yl]phenyl]propoxy]-1-piperidyl]pyrimidine-5-carboxamide] | < 5.60 |
| COCC[C@@H]1N=C(c2ccc(CCCOC3CCN(c4ncc(C(=O)N[C@H]5C(C)(C)[C@H](Oc6ccc(C#N)c(Cl)c6)C5(C)C)cn4)CC3)cc2)c2c(sc(C)c2C)-n2c(C)nnc21 [Compound I-227, N-[3-(3-chloro-4-cyano-phenoxy)-2,2,4,4-tetramethyl-cyclobutyl]-2-[4-[3-[4-[(9S)-9-(2-methoxyethyl)-4,5,13-trimethyl-3-thia-1,8,11,12-tetrazatricyclo[8.3.0.02,6]trideca-2(6),4,7,10,12-pentaen-7-yl]phenyl]propoxy]-1-piperidyl]pyrimidine-5-carboxamide] | < 5.60 |
| Cc1sc2c(c1C)C(c1ccc(CCCOC3CCN(c4ncc(C(=O)N[C@H]5C(C)(C)[C@H](Oc6ccc(C#N)c(Cl)c6)C5(C)C)cn4)CC3)cc1)=N[C@@H](C)c1nnc(C)n1-2 [Compound I-228, N-[3-(3-chloro-4-cyano-phenoxy)-2,2,4,4-tetramethyl-cyclobutyl]-2-[4-[3-[4-[(9S)-4,5,9,13-tetramethyl-3-thia-1,8,11,12-tetrazatricyclo [8.3.0.02,6]trideca-2(6),4,7,10,12-pentaen-7-yl]phenyl]propoxy]-1-piperidyl]pyrimidine-5-carboxamide] | < 5.60 |
| Cc1sc2c(c1C)C(c1ccc(OCCOC3CCN(c4ncc(C(=O)N[C@H]5C(C)(C)[C@H](Oc6ccc(C#N)c(Cl)c6)C5(C)C)cn4)CC3)cc1)=N[C@@H](CC(=O)OC(C)(C)C)c1nnc(C)n1-2 [Compound I-235, tert-butyl 2-((S)-4-(4-(2-((1-(5-(((1r,3r)-3-(3-chloro-4-cyanophenoxy)-2,2,4,4-tetramethylcyclobutyl)carbamoyl)pyrimidin-2-yl)piperidin-4-yl)oxy)ethoxy)phenyl)-2,3,9-trimethyl-6H-thieno[3,2-f][1,2,4]triazolo[4,3-a][1,4]diazepin-6-yl)acetate] | < 5.60 |

Next, values leading:

| pKd | SMILES |
| --- | --- |
| 6.30 to 7.30 | CCNC(=O)C[C@@H]1N=C(c2ccc(OCCOC3CCN(c4ncc(C(=O)N[C@H]5C(C)(C)[C@H](Oc6ccc(C#N)c(Cl)c6)C5(C)C)cn4)CC3)cc2)c2c(sc(C)c2C)-n2c(C)nnc21 [Compound I-60, N-((1r,3r)-3-(3-chloro-4-cyanophenoxy)-2,2,4,4-tetramethylcyclobutyl)-2-(4-(2-(4-((S)-6-(2-(ethylamino)-2-oxoethyl)-2,3,9-trimethyl-6H-thieno[3,2-f][1,2,4]triazolo[4,3-a][1,4]diazepin-4-yl)phenoxy)ethoxy)piperidin-1-yl)pyrimidine-5-carboxamide] |
| > 7.30 | CCNC(=O)C[C@@H]1N=C(c2ccc(OCC3CN(c4ncc(C(=O)N[C@H]5C(C)(C)[C@H](Oc6ccc(C#N)c(Cl)c6)C5(C)C)cn4)C3)cc2)c2c(sc(C)c2C)-n2c(C)nnc21 [Compound I-71] |
| < 5.60 | CCNC(=O)C[C@@H]1N=C(c2ccc(CCCC3CCN(c4ncc(C(=O)N[C@H]5C(C)(C)[C@H](Oc6ccc(C#N)c(Cl)c6)C5(C)C)cn4)CC3)cc2)c2c(sc(C)c2C)-n2c(C)nnc21 [Compound I-95] |
| 6.30 to 7.30 | CCNC(=O)C[C@@H]1N=C(c2ccc(N3CCN(CC4CCN(c5ncc(C(=O)N[C@H]6C(C)(C)[C@H](Oc7ccc(C#N)c(Cl)c7)C6(C)C)cn5)CC4)CC3)cc2)c2c(sc(C)c2C)-n2c(C)nnc21 [Compound I-105, N-[3-(3-chloro-4-cyano-phenoxy)-2,2,4,4-tetramethyl-cyclobutyl]-2-[4-[[4-[4-[(9S)-9-[2-(ethylamino)-2-oxo-ethyl]-4,5,13-trimethyl-3-thia-1,8,11,12-tetrazatricyclo[8.3.0.02,6]trideca-2(6),4,7,10,12-pentaen-7-yl]phenyl]piperazin-1-yl]methyl]-1-piperidyl]pyrimidine-5-carboxamide] |
| 5.60 to 6.30 | CCNC(=O)C[C@@H]1N=C(c2ccc(N(C)CCN3CCN(c4ncc(C(=O)N[C@H]5C(C)(C)[C@H](Oc6ccc(C#N)c(Cl)c6)C5(C)C)cn4)CC3)cc2)c2c(sc(C)c2C)-n2c(C)nnc21 [Compound I-108] |
| 6.30 to 7.30 | CCNC(=O)C[C@@H]1N=C(c2ccc(N3CCC(N(C)C4CCN(c5ncc(C(=O)N[C@H]6C(C)(C)[C@H](Oc7ccc(C#N)c(Cl)c7)C6(C)C)cn5)CC4)CC3)cc2)c2c(sc(C)c2C)-n2c(C)nnc21 [Compound I-113] |
| 5.60 to 6.30 | CCNC(=O)C[C@@H]1N=C(c2ccc(N3CCC(OC4CCN(c5ncc(C(=O)N[C@H]6C(C)(C)[C@H](Oc7ccc(C#N)c(Cl)c7)C6(C)C)cn5)CC4)CC3)cc2)c2c(sc(C)c2C)-n2c(C)nnc21 [Compound I-114] |
| 6.30 to 7.30 | CCNC(=O)C[C@@H]1N=C(c2ccc(N(C)C3CN(CC4CCN(c5ncc(C(=O)N[C@H]6C(C)(C)[C@H](Oc7ccc(C#N)c(Cl)c7)C6(C)C)cn5)CC4)C3)cc2)c2c(sc(C)c2C)-n2c(C)nnc21 [Compound I-119] |
